Source: patent publication US7435438B1, “Disinfectant and method of use” (Pure BioScience, priority 2003, dated 2008)

How the values were obtained:
[1] = test system: Enterococcus faecium ATCC 6569
[2] = test system: Salmonella cholerasuis ATCC 10708
[3] = test system: HIV type1, Strain HTLV = IIIB
[4] = test system: Staphylococcus aureus (MRSA) ATCC 700698; conditions: 30 ppm
[5] = test system: Enterococcus facium (VRE) ATCC 700221; conditions: 30 ppm
[6] = test system: Herpes simplex type I ATCC VR-733, Strain F(1)
[7] = test system: Trichophyton Mentagrophytes ATCC 9533; conditions: 30 ppm
[8] = test system: Legionella in biofilm and planktonic samples
[9] = test system: Influenza A ATCC VR-544, Hong Kong Strain
[10] = test system: pathogenic bacterial populations, biofilms
[11] = test system: Rhinovirus R37 ATCC VR-1147, Strain 151-1
[12] = test system: Poliovirus type 2 ATCC VR-1002, Strain Lansing
[13] = test system: Staphylococcus aureus ATCC 6538
[14] = test system: Proprionibacterium acnes ATCC 6921; conditions: 30 ppm
[15] = test system: dermal lesions both contaminated and infected with gram negative and gram positive bacteria
total bacteria present = conditions: approximately 5 ppm for 5 seconds, drip dry 10 seconds, rinse in 0.1 ppm for 5 seconds; fruits, vegetables, fish and shrimp
[16] = test system: Listeria monocytogenes ATCC 19111; conditions: 30 ppm
[17] = test system: listeria monocytogenes ATCC 11543
[18] = test system: heterotrophic bacteria (HBC) in biofilm and planktonic phases
[19] = test system: Pseudomonas aeruginosa ATCC 15422
[20] = equine, observed repeatedly during the study

silver dihydrogen citrate
effectiveness as hard surface disinfectant with direct food contact [1]: effective
KILL TIME [2]: 30-seconds
effectiveness as hard surface disinfectant with direct food contact [2]: effective
effectiveness as hard surface disinfectant with direct food contact (E. coli ATCC 11229): effective
KILL TIME [3]: 30-second
effectiveness as hard surface disinfectant with direct food contact [3]: effective
KILL TIME [4]: 2-minute
KILL TIME [5]: 2-minute
KILL TIME [6]: 1-minute
effectiveness as hard surface disinfectant with direct food contact [6]: effective
exposure after which the fungus is killed [7]: 10 min
killing of Legionella (in words) [8]: killed Legionella
KILL TIME [9]: 10-minute
effectiveness as hard surface disinfectant with direct food contact [9]: effective
mortality in shrimp raising tanks [10]: decreasing
pathogenic bacterial populations, biofilms ([10]; shrimp raising tanks): significantly reducing
KILL TIME [11]: 10-minute
effectiveness as hard surface disinfectant with direct food contact [11]: effective
KILL TIME [12]: 10-minute
effectiveness as hard surface disinfectant with direct food contact [12]: effective
KILL TIME [13]: 30-seconds
effectiveness as hard surface disinfectant with direct food contact [13]: effective
KILL TIME [14]: 15-seconds
efficacy for irrigating deep wounds and abscesses ([15]; equine): very efficacious
granulation / fibrosis ([15]; equine): promote healthy granulation without excessive fibrosis
healing time [15, 20]: Decreased healing time
scar formation [15, 20]: reduction in scar formation
performance on dermal lesions compared to available disinfectant products on the market ([15]; equine, wet dressings or spray): superior performance
healing and draining of deep wounds closed with drains ([15]; flushed with the disinfectant): rapid healing time and reduced draining
uterine flush for bacterial and/or fungal/yeast infection ([15]; preliminary results): very promising
total bacteria present eliminated (total bacteria present): 99.99%
KILL TIME (E. coli 0157 ATCC 43888): 2-minute
effectiveness as hard surface disinfectant with direct food contact (E. coli 0157 ATCC 43888): effective
effectiveness as hard surface disinfectant with direct food contact (SARS): will be effective
KILL TIME [16]: 30-seconds
effectiveness as hard surface disinfectant with direct food contact [17]: effective
result of ASTM E645-97 test (L. pneumophila): passed
reduction of heterotrophic bacteria [18]: did not significantly reduce
KILL TIME [19]: 30-seconds
effectiveness as hard surface disinfectant with direct food contact [19]: effective
